Assays:
[1] = molecular target: T1, PAS domain-containing serine/threonine-protein kinase (Homo sapiens, UniProt Q96RG2); assay: Inhibition of human recombinant PASK using Ulight-peptide substrate incubated for 2 hrs by TR-FRET assay
[2] = molecular target: T1, PAS domain-containing serine/threonine-protein kinase; assay: Inhibition of N-terminal GST-tagged human recombinant PASK kinase domain (879 to 1323 residues) expressed in insect cells using MBP protein substrate incubated for 120 mins in presence of [33P]ATP by scintillation counting based radiochemical assay
[3] = molecular target: Casein kinase II subunit alpha' (Homo sapiens, UniProt P19784); assay: Inhibition of GST-tagged full-length purified human CK2a2 using RRRDDDSDDD substrate incubated for 120 mins in presence of [33P]ATP by scintillation counting based biochemical assay
Sequence of Casein kinase II subunit alpha' (P19784 whole entry): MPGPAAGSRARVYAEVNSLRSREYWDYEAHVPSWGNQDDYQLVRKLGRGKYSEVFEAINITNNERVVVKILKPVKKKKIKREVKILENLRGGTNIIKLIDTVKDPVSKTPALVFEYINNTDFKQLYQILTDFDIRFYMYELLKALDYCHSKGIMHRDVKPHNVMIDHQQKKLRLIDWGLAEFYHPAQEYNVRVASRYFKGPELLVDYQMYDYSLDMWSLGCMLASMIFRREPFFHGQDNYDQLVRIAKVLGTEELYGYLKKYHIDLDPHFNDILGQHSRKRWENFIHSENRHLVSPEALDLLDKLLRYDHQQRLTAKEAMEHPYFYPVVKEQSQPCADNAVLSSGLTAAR

T1 sequence (Q96RG2 whole entry, the tested form may be a part): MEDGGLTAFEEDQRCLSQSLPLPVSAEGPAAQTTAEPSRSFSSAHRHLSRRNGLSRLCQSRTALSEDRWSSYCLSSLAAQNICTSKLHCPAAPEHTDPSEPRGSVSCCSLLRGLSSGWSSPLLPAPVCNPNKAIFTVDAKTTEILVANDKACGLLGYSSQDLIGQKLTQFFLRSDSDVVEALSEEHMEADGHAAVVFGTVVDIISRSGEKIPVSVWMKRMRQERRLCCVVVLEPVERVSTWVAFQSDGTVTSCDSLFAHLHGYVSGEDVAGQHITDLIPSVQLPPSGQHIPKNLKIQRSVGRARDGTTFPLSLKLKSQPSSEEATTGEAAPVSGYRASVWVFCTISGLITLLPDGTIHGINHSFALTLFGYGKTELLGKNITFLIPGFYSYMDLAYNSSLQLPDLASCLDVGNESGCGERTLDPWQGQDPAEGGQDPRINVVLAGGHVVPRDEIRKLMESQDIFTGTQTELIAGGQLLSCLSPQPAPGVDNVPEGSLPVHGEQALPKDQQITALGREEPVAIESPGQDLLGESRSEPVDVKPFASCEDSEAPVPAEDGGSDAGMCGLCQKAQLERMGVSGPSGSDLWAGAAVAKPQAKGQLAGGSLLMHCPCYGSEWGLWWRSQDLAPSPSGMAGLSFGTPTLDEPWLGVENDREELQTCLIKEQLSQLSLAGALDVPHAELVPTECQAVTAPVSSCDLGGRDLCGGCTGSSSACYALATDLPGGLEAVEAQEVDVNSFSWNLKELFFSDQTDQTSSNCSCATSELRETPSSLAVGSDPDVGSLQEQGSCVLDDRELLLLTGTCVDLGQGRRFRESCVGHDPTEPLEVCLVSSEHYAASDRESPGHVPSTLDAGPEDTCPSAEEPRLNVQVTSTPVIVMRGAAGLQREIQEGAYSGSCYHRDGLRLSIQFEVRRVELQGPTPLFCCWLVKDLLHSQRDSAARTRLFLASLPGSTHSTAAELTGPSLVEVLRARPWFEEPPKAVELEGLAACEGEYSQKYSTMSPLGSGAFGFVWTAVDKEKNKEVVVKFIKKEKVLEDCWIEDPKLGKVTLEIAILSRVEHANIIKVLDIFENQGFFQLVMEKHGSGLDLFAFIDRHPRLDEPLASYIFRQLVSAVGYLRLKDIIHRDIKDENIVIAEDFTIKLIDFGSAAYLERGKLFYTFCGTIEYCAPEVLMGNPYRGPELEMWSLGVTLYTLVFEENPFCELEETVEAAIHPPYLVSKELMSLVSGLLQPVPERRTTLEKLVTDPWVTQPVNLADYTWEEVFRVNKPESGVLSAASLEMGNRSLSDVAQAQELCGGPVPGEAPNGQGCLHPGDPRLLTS

| SMILES | IC50 [1] | IC50 [2] | IC50 [3] |
| --- | --- | --- | --- |
| O=c1cc(-c2ccc3c(c2)OCCO3)[nH]c2c(-c3ccccc3)c(O)nn12 | ≤ 10 µM | ≤ 10 µM |  |
| O=c1cc(-c2ccc(Cl)cc2)[nH]c2c(-c3cccnc3)c(O)nn12 | ≤ 10 µM | ≤ 10 µM | ≥ 10 µM |
| O=c1cc(-c2ccc3c(c2)OCCO3)[nH]c2c(-c3ccc(N4CCCC4)nc3)cnn12 | ≤ 10 µM | ≤ 10 µM | ≤ 10 µM |
| O=c1cc(-c2ccc(Cl)c(Cl)c2)[nH]c2c(-c3ccccn3)cnn12 | ≤ 10 µM | ≤ 10 µM | ≤ 10 µM |
| O=c1cc(-c2ccccn2)[nH]c2c(-c3ccc(F)cc3)cnn12 |  | ≤ 10 µM | ≤ 10 µM |
| COc1ccc(-c2cc(=O)n3nc(C)c(Cc4ccccc4)c3[nH]2)cc1OC |  |  | ≥ 10 µM |
| O=c1cc(-c2ccc3cc[nH]c3c2)[nH]c2c(-c3ccccc3)cnn12 | ≤ 10 µM | ≤ 10 µM | ≤ 10 µM |
| O=c1cc(-c2ccc(F)cc2)[nH]c2c(-c3ccccn3)cnn12 | ≤ 10 µM | ≤ 10 µM | ≤ 10 µM |
| O=c1cc(-c2ccc3occc3c2)[nH]c2c(-c3ccccc3)c(O)nn12 | ≤ 10 µM | ≤ 10 µM | ≤ 10 µM |
| Cc1nn2c(=O)cc(-c3ccc4ncccc4c3)[nH]c2c1Cc1ccccc1 | ≤ 10 µM | ≤ 10 µM | ≤ 10 µM |
| O=c1cc(-c2cc3ccccc3o2)[nH]c2c(-c3ccccn3)cnn12 | ≤ 10 µM | ≤ 10 µM | ≤ 10 µM |
| NC(=O)c1cnn2c(=O)cc(-c3ccc4c(c3)OCCO4)[nH]c12 | ≤ 10 µM | ≤ 10 µM | ≤ 10 µM |
| COc1cccc(-c2cc(=O)n3nc(C)c(Cc4ccc(Cl)cc4)c3[nH]2)c1 |  |  | ≥ 10 µM |
| O=c1cc(-c2ccc3c(c2)CCO3)[nH]c2c(-c3ccccc3)cnn12 | ≤ 10 µM | ≤ 10 µM | ≤ 10 µM |
| O=c1cc(-c2ccc3c(c2)CCO3)[nH]c2c(-c3cccnc3)cnn12 | ≤ 10 µM | ≤ 10 µM | ≤ 10 µM |
| COc1cccc(-c2cnn3c(=O)cc(-c4ccc5c(c4)OCCO5)[nH]c23)c1 | ≤ 10 µM | ≤ 10 µM | ≤ 10 µM |
| Cc1nn2c(=O)cc(-c3ccc4c(c3)OCCO4)[nH]c2c1-c1ccc(F)cc1 | ≤ 10 µM | ≤ 10 µM | ≤ 10 µM |
| Cc1nn2c(=O)cc(-c3cccnc3)[nH]c2c1-c1ccc(F)cc1 |  | ≤ 10 µM | ≤ 10 µM |
| O=c1cc(-c2ccc3c(c2)OCCO3)[nH]c2c(-c3cccc(F)c3)cnn12 | ≤ 10 µM |  | ≤ 10 µM |
| COc1ccc(-c2cc(=O)n3ncc(-c4ccccn4)c3[nH]2)cc1OC | ≤ 10 µM | ≤ 10 µM | ≤ 10 µM |
| O=c1cc(-c2ccc3c(c2)OCCO3)[nH]c2c(-c3ccc(N4CCCCC4)nc3)cnn12 | ≤ 10 µM |  | ≤ 10 µM |
| CCCc1c(C)nn2c(=O)cc(-c3ccc(OC)cc3)[nH]c12 | ≤ 10 µM | ≤ 10 µM | ≥ 10 µM |
| COc1ccccc1-c1cc(=O)n2ncc(-c3ccccn3)c2[nH]1 | ≤ 10 µM | ≤ 10 µM | ≤ 10 µM |
| O=c1cc(-c2ccc(F)cc2)[nH]c2c(-c3ccccn3)c(O)nn12 | ≤ 10 µM | ≤ 10 µM | ≥ 10 µM |
| O=C(NCc1ccccc1)c1cnn2c(=O)cc(-c3ccc4c(c3)OCCO4)[nH]c12 | ≤ 10 µM | ≤ 10 µM |  |
| O=c1cc(-c2ccc3c(c2)CCO3)[nH]c2c(-c3ccccn3)cnn12 | ≤ 10 µM | ≤ 10 µM | ≤ 10 µM |
| O=c1cc(-c2ccc3c(c2)OCO3)[nH]c2c(-c3cccnc3)c(O)nn12 | ≤ 10 µM | ≤ 10 µM | ≤ 10 µM |
| CN1CCN(C(=O)c2cnn3c(=O)cc(-c4ccc5c(c4)OCCO5)[nH]c23)CC1 | ≤ 10 µM | ≤ 10 µM |  |

| SMILES | IC50 [1] | IC50 [2] | IC50 [3] |
| --- | --- | --- | --- |
| O=c1cc(-c2ccc3c(c2)CCO3)[nH]c2c(-c3cccnc3)c(O)nn12 | ≤ 10 µM | ≤ 10 µM | ≤ 10 µM |
| Cc1nn2c(=O)cc(-c3ccccc3)[nH]c2c1Cc1ccc(Cl)cc1 |  |  | ≤ 10 µM |
| Nc1nn2c(=O)cc(-c3ccc4c(c3)OCCO4)[nH]c2c1-c1ccccc1 | ≤ 10 µM | ≤ 10 µM | ≤ 10 µM |
| O=c1cc(-c2ccc3c(c2)OCCO3)[nH]c2c(-c3ccccn3)c(O)nn12 | ≤ 10 µM | ≤ 10 µM |  |
| COc1ccc(-c2cc(=O)n3ncc(-c4ccccn4)c3[nH]2)c(OC)c1 | ≤ 10 µM | ≤ 10 µM |  |
| Cc1nn2c(=O)cc(-c3ccc(OC(C)C)cc3)[nH]c2c1Cc1ccc(Cl)cc1 |  |  | ≥ 10 µM |
| Cc1nn2c(=O)cc(-c3ccc(C(F)(F)F)cc3)[nH]c2c1Cc1ccc(Cl)cc1 |  |  | ≥ 10 µM |
| Cc1nn2c(=O)cc(-c3ccc4c(c3)OCO4)[nH]c2c1Cc1cccc(Cl)c1 | ≤ 10 µM | ≤ 10 µM | ≤ 10 µM |
| O=c1cc(-c2ccc3c(c2)OCCO3)[nH]c2c(-c3ccccc3)c(C(F)(F)F)nn12 | ≤ 10 µM | ≤ 10 µM | ≤ 10 µM |
| O=c1cc(-c2ccc(Cl)cc2)[nH]c2c(-c3ccccn3)cnn12 | ≤ 10 µM | ≤ 10 µM |  |
| COc1ccc(-c2cc(=O)n3nc(C)c(Cc4ccc(Cl)cc4)c3[nH]2)cc1OC |  |  | ≥ 10 µM |
| O=C(c1cnn2c(=O)cc(-c3ccc4c(c3)OCCO4)[nH]c12)N1CCOCC1 | ≤ 10 µM | ≤ 10 µM |  |
| O=c1cc(-c2ccc3c(c2)OCO3)[nH]c2c(Cc3ccccc3)cnn12 | ≤ 10 µM | ≤ 10 µM | ≤ 10 µM |
| COC(=O)c1ccc(-c2cc(=O)n3nc(C)c(Cc4ccc(Cl)cc4)c3[nH]2)cc1 |  |  | ≥ 10 µM |
| O=c1cc(-c2ccc3occc3c2)[nH]c2c(-c3ccccc3)cnn12 | ≤ 10 µM | ≤ 10 µM | ≤ 10 µM |
| COc1ccc(-c2cc(=O)n3nc(C)c(Cc4ccccc4Cl)c3[nH]2)cc1 | ≤ 10 µM |  | ≥ 10 µM |
| Cc1nn2c(=O)cc(-c3ccc4c(c3)OCO4)[nH]c2c1Cc1ccc(Cl)cc1 | ≤ 10 µM | ≤ 10 µM | ≤ 10 µM |
| Cc1nn2c(=O)cc(-c3ccc(C(N)=O)cc3)[nH]c2c1Cc1ccc(Cl)cc1 |  |  | ≥ 10 µM |
| COc1ccc(-c2cc(=O)n3nc(O)c(-c4ccccn4)c3[nH]2)c(OC)c1 | ≤ 10 µM | ≤ 10 µM | ≥ 10 µM |
| COc1ccc(-c2cc(=O)n3ncc(-c4cccnc4)c3[nH]2)cc1 | ≤ 10 µM | ≤ 10 µM | ≤ 10 µM |
| O=c1cc(-c2ccc3c(c2)CCO3)[nH]c2c(-c3ccccn3)c(O)nn12 | ≤ 10 µM | ≤ 10 µM | ≥ 10 µM |
| O=c1cc(-c2ccc3occc3c2)[nH]c2c(-c3ccccn3)c(O)nn12 | ≤ 10 µM | ≤ 10 µM | ≤ 10 µM |
| N#Cc1cnn2c(=O)cc(-c3ccc4c(c3)OCCO4)[nH]c12 | ≤ 10 µM | ≤ 10 µM | ≤ 10 µM |
| COc1ccc2c(c1)CCc1c-2[nH]c2c(-c3ccccn3)cnn2c1=O | ≤ 10 µM | ≤ 10 µM | ≤ 10 µM |
| O=c1cc(-c2ccc(Cl)cc2)[nH]c2c(-c3ccccn3)c(O)nn12 | ≤ 10 µM | ≤ 10 µM | ≥ 10 µM |
| Cc1nn2c(=O)cc(-c3ccccc3)[nH]c2c1Cc1ccccc1 |  |  | ≥ 10 µM |
| Nc1nn2c(=O)cc(-c3ccc(Cl)cc3)[nH]c2c1-c1ccccc1 | ≤ 10 µM | ≤ 10 µM | ≤ 10 µM |

— ChEMBL document CHEMBL3714729, “Heterocyclic compounds for the inhibition of pask” (2012)
